{"source": "patent US10011626B2", "about": "“Method for the purification of decitabine” (Johnson Matthey Public Limited Company, priority 2012, dated 2018)", "origin": "cited, not measured here", "data": [{"smiles": "Nc1ncn([C@H]2CC(O)[C@@H](CO)O2)c(=O)n1", "note": "(stereo partly drawn) [decitabine, 4-amino-1-(2-deoxy-β-D-erythropentofuranosyI)-1,3,5-triazin-2-(1H)-one]", "values": [{"measurement": "solubility in 1,1,1,3,3,3-hexafluoro-2-propanol", "setting": "solvent: 1,1,1,3,3,3-hexafluoro-2-propanol, slightly soluble", "result": "about 18 mg/mL"}, {"measurement": "solubility in methyl sulfoxide", "setting": "solvent: methyl sulfoxide", "result": "approximately 37 mg/mL"}, {"measurement": "solubility in water", "setting": "solvent: water, sparingly soluble", "result": "about 8 mg/mL"}]}]}
